Experimental data taken from US20250017903A1, “USE OF EDARAVONE IN TREATMENT OF AUTISM SPECTRUM DISORDER” (SUZHOU AUZONE BIOLOGICAL TECHNOLOGY CO., LTD., priority 2021, published 2025).

Assays:
[1] = tested on: glutathione S-transferase (GST); experiment: GST activity detection in brain tissue of VPA model rats; assay type: in vivo, rat; settings: for GST activity in the hippocampus (HIP) / GST activity in the prefrontal cortex (PFC): after 28 days of gavage, mean ± SE
Method: (§1) On the 26th day after the offspring were born, the modeled VPA group was randomly divided into 6 groups: placebo group (n=19, soluplus 428 mg/kg), positive drug (cromolyn sodium) group (n=14, cromolyn sodium 6.3 mg/kg), positive drug solvent (NS) group (n=12, equal dose of normal saline), EDA low-dose group (n=12, Edaravone 3 mg/kg), EDA medium-dose group (n=12, Edaravone 10 mg/kg) and EDA high-dose group (n=22, Edaravone 30 mg/kg); and another CON group (n=9). The positive drug group and the positive drug solvent group were given intraperitoneal injection, and the placebo group and each dose group of EDA were administrated by oral gavage, once a day for 28 consecutive days. Three-chamber social tests were conducted after 14 and 28 days of administration, and an open field test was conducted after 28 days of administration. After the animals were sacrificed, 6 animals were randomly selected from each group of the placebo group and each dose group of EDA, and the prefrontal cortex, hippocampus, cerebellum and blood were collected to detect oxidative stress-related indicators, so as to detect the antioxidant capacity of the body.
After 28 days of gavage treatment, the results of glutathione S-transferase (GST) activity detection in the prefrontal cortex (PFC) and hippocampus (HIP) are shown in Table 4.

[2] = tested on: reduced glutathione (GSH); experiment: GSH detection in hippocampus and serum of VPA model rats; assay type: in vivo, rat; settings: for GSH activity in the hippocampus (HIP) / GSH activity in the serum: after 28 days of gavage, mean ± SE
Method: as §1
After 28 days of gavage treatment, the results of reduced glutathione (GSH) activity detection in hippocampus (HIP) and serum are shown in Table 5.

[3] = tested on: VPA-induced autism model rats; experiment: Open field test (grooming time) in VPA-induced rat autism model; assay type: in vivo; settings: for Grooming time: VPA rats, mean ± SE, in s (unit assumed); for Grooming time compared with before treatment: self-comparison, p<0.05 (FIG. 5)
Method: (§2) Twenty-five SD pregnant rats were given a single intraperitoneal injection of 500 mg/kg sodium valproate (VPA) on 12.5 embryonic day and delivered on 21 embryonic day, and the male offspring were retained as the VPA group. Five pregnant rats in the control group were given a single intraperitoneal injection of normal saline of the same amount on 12.5 embryonic day and delivered on 21 embryonic day; and the male offspring were designated as the CON group.
(§3) When the offspring rats were 25th day old, an open field test was conducted to observe the grooming time, which reflects the repetitive and stereotyped behaviors of the animals); a three-chamber social test was conducted to observe the Social Index (SI), Social Index=(Time when the animal enters the unfamiliar rat area-time when the animal enters the empty cage area)÷(time when the animal enters the unfamiliar rat area+time when the animal enters the empty cage area), reflecting the social ability of experimental animals.
as §1

[4] = tested on: superoxide dismutase (SOD); experiment: SOD activity detection in brain tissue of VPA model rats; assay type: in vivo, rat; settings: for SOD activity in the cerebellum (CE) / SOD activity in the prefrontal cortex (PFC): after 28 days of gavage, mean ± SE
Method: as §1
After 28 days of gavage treatment, the results of superoxide dismutase (SOD) activity detection in the prefrontal cortex (PFC) and cerebellum (CE) are shown in Table 3.

[5] = tested on: cysteine (Cys); experiment: Cys content detection in serum of VPA model rats; assay type: in vivo, rat; settings: for Cys content in serum: after 28 days of gavage, mean ± SE
Method: as §1

[6] = tested on: VPA-induced autism model rats; experiment: Three-chamber social test (social index) in VPA-induced rat autism model; assay type: in vivo; settings: for Social index (SI): VPA rats, mean ± SE
Method: as §2, §3, §1

[7] = Day 28, EDA 3 mg/kg oral gavage once a day
[8] = Day 28, EDA 10 mg/kg oral gavage once a day
[9] = Day 28, EDA 30 mg/kg oral gavage once a day
[10] = before treatment (baseline), EDA 3 mg/kg group
[11] = before treatment (baseline), EDA 10 mg/kg group
[12] = before treatment (baseline), EDA 30 mg/kg group
[13] = after 14 days of treatment, each dose group of EDA and cromolyn sodium group, p<0.01 (FIG. 4)
[14] = Day 28, cromolyn sodium 6.3 mg/kg intraperitoneal once a day
[15] = before treatment (baseline), cromolyn sodium 6.3 mg/kg group

**Q.** With CC1=NN(c2ccccc2)C(=O)C1 [EDA, 3-methyl-1-phenyl-2-pyrazolin-5-one] as the compound, how does the “GST activity in the hippocampus (HIP)” value ([1]; EDA 3 mg/kg) read?
**A.** Its value is 144.5 ± 59.64 U/mgprot.

**Q.** And the “GST activity in the prefrontal cortex (PFC)” value ([1]; EDA 3 mg/kg)?
**A.** Its value is 39.54 ± 13.34 U/mgprot.

**Q.** What about the “GST activity in the hippocampus (HIP)” value ([1]; EDA 10 mg/kg) of the same compound?
**A.** The value was 117.7 ± 28.12 U/mgprot.

**Q.** And the “GST activity in the prefrontal cortex (PFC)” value ([1]; EDA 10 mg/kg)?
**A.** Its value is 46.93 ± 13.31 U/mgprot.

**Q.** What about the “GST activity in the hippocampus (HIP)” value ([1]; EDA 30 mg/kg) of the same compound?
**A.** Its value is 295.4 ± 54.67 U/mgprot.

**Q.** And the “GST activity in the prefrontal cortex (PFC)” value ([1]; EDA 30 mg/kg)?
**A.** Its value is 103.8 ± 22.27 U/mgprot.

**Q.** And the “GST activity in the prefrontal cortex (PFC) compared with the placebo group” value ([1]; high-dose EDA group, p<0.01 (FIG. 9))?
**A.** Its value is “significantly increased”.

**Q.** And the “GST activity in the hippocampus (HIP) compared with the placebo group” value ([1]; high-dose EDA group, p<0.01 (FIG. 10))?
**A.** The value was “significantly increased”.

**Q.** What about the “GSH activity in the serum compared with the placebo group” value ([2]; EDA high-dose group, p<0.01 (FIG. 12)) of the same compound?
**A.** Its value is “even more significantly increased”.

**Q.** What about the “GSH activity in the hippocampus (HIP) compared with the placebo group” value ([2]; EDA high-dose group, p<0.05 (FIG. 11)) of the same compound?
**A.** Its value is “significantly increased”.

**Q.** What about the “GSH activity in the hippocampus (HIP)” value ([2]; EDA 3 mg/kg) of the same compound?
**A.** The value was 14.44 ± 7.97 U/mgprot.

**Q.** What about the “GSH activity in the serum” value ([2]; EDA 3 mg/kg) of the same compound?
**A.** Its value is 9.6 ± 2.14 U/mgprot.

**Q.** What about the “GSH activity in the hippocampus (HIP)” value ([2]; EDA 10 mg/kg) of the same compound?
**A.** The value was 49.39 ± 10.34 U/mgprot.

**Q.** What about the “GSH activity in the serum” value ([2]; EDA 10 mg/kg) of the same compound?
**A.** Its value is 10.35 ± 1.92 U/mgprot.

**Q.** What about the “GSH activity in the hippocampus (HIP)” value ([2]; EDA 30 mg/kg) of the same compound?
**A.** Its value is 78.87 ± 17.13 U/mgprot.

**Q.** What about the “GSH activity in the serum” value ([2]; EDA 30 mg/kg) of the same compound?
**A.** The value was 21.45 ± 0.86 U/mgprot.

**Q.** What about the Grooming time [3, 7] of the same compound?
**A.** Its Grooming time is 6.29 ± 1.72.

**Q.** And the Grooming time [3, 8]?
**A.** The Grooming time was 5.04 ± 1.67.

**Q.** And the Grooming time [3, 9]?
**A.** Its Grooming time is 17.27 ± 5.78.

**Q.** What about the “Grooming time compared with the placebo group” value ([3]; after 28 days of continuous gavage, each dose group of EDA, p<0.05, low and medium dose p<0.01 (FIG. 6)) of the same compound?
**A.** Its value is “significantly reduced”.

**Q.** And the “Grooming time compared with before treatment” value ([3]; after 28 days of treatment)?
**A.** Its value is “significantly reduced”.

**Q.** What about the “Grooming time compared with the positive drug (cromolyn sodium) group” value ([3]; after 28 days, EDA low-dose (3 mg/kg) and medium-dose (10 mg/kg) groups (FIG. 6)) of the same compound?
**A.** The value was “significantly reduced”.

**Q.** What about the Grooming time [3, 10] of the same compound?
**A.** The Grooming time was 29.17 ± 5.82.

**Q.** What about the Grooming time [3, 11] of the same compound?
**A.** The Grooming time was 20.76 ± 4.42.

**Q.** And the Grooming time [3, 12]?
**A.** The Grooming time was 36.3 ± 5.08.

**Q.** And the “SOD activity in the prefrontal cortex compared with the placebo group” value ([4]; EDA medium-dose and high-dose groups, p<0.05, high dose p<0.001 (FIG. 7))?
**A.** The value was “significantly increased”.

**Q.** And the “SOD activity in the cerebellum (CE)” value ([4]; EDA 3 mg/kg)?
**A.** The value was 67.04 ± 11.3 U/mgprot.

**Q.** And the “SOD activity in the prefrontal cortex (PFC)” value (“SOD activity … (PFC)” for short) ([4]; EDA 3 mg/kg)?
**A.** The value was 124.6 ± 5.73 U/mgprot.

**Q.** What about the “SOD activity in the cerebellum (CE)” value ([4]; EDA 10 mg/kg) of the same compound?
**A.** The value was 83.07 ± 3.39 U/mgprot.

**Q.** What about the “SOD activity … (PFC)” value ([4]; EDA 10 mg/kg) of the same compound?
**A.** The value was 203.4 ± 14.37 U/mgprot.

**Q.** What about the “SOD activity in the cerebellum (CE)” value ([4]; EDA 30 mg/kg) of the same compound?
**A.** Its value is 138.7 ± 18.62 U/mgprot.

**Q.** What about the “SOD activity … (PFC)” value ([4]; EDA 30 mg/kg) of the same compound?
**A.** The value was 315 ± 42.53 U/mgprot.

**Q.** What about the “Cys content in the blood compared with the placebo group” value ([5]; EDA high-dose group, after 28 days of treatment, p<0.0001 (FIG. 13)) of the same compound?
**A.** Its value is “significantly higher”.

**Q.** And the “Cys content in serum” value ([5]; EDA 3 mg/kg)?
**A.** The value was 0.35 ± 0.05 µmol/mL.

**Q.** What about the “Cys content in serum” value ([5]; EDA 10 mg/kg) of the same compound?
**A.** The value was 0.38 ± 0.13 µmol/mL.

**Q.** What about the “Cys content in serum” value ([5]; EDA 30 mg/kg) of the same compound?
**A.** Its value is 1.15 ± 0.10 µmol/mL.

**Q.** And the “Social index (SI)” value ([6]; Day 14, EDA 3 mg/kg oral gavage once a day)?
**A.** Its value is 0.37 ± 0.14.

**Q.** And the “Social index (SI)” value ([6]; Day 14, EDA 10 mg/kg oral gavage once a day)?
**A.** Its value is 0.42 ± 0.15.

**Q.** And the “Social index (SI)” value ([6]; Day 14, EDA 30 mg/kg oral gavage once a day)?
**A.** Its value is 0.51 ± 0.11.

**Q.** What about the “Social index (SI)” value [6, 7] of the same compound?
**A.** Its value is 0.48 ± 0.10.

**Q.** And the “Social index (SI)” value [6, 8]?
**A.** Its value is 0.53 ± 0.09.

**Q.** And the “Social index (SI)” value [6, 9]?
**A.** The value was 0.55 ± 0.06.

**Q.** What about the “Social index compared with the placebo group” value [6, 13] of the same compound?
**A.** Its value is “significantly improved”.

**Q.** And the “Social index compared with the placebo group” value ([6]; after 28 days of treatment, each dose group of EDA, p<0.05, high dose p<0.01 (FIG. 4))?
**A.** Its value is “significantly improved”.

**Q.** What about the “Social index (SI)” value [6, 10] of the same compound?
**A.** The value was −0.12 ± 0.11.

**Q.** What about the “Social index (SI)” value [6, 11] of the same compound?
**A.** The value was −0.07 ± 0.15.

**Q.** What about the “Social index (SI)” value [6, 12] of the same compound?
**A.** Its value is −0.04 ± 0.12.

**Q.** And the “Social index compared with before treatment” value ([6]; each dose group, after 14 and 28 days of continuous gavage, self-comparison (FIG. 3))?
**A.** Its value is “increased significantly”.

**Q.** Which Grooming time [3, 14] does the source give for O=C(O)c1cc(=O)c2c(OCC(O)COc3cccc4oc(C(=O)O)cc(=O)c34)cccc2o1 [cromolyn sodium] here?
**A.** The Grooming time was 12.41 ± 2.01.

**Q.** And the “Grooming time, positive drug solvent group versus positive drug group” value ([3]; after 28 days of treatment, cromolyn sodium 6.3 mg/kg intraperitoneal (FIG. 6))?
**A.** The value was “no significant difference”.

**Q.** And the “Grooming time compared with before treatment” value ([3]; after 28 days of treatment)?
**A.** The value was “significantly reduced”.

**Q.** And the Grooming time [3, 15]?
**A.** Its Grooming time is 27.63 ± 5.78.

**Q.** And the “Social index (SI)” value ([6]; Day 14, cromolyn sodium 6.3 mg/kg intraperitoneal once a day)?
**A.** The value was 0.08 ± 0.37.

**Q.** And the “Social index (SI)” value [6, 14]?
**A.** Its value is 0.42 ± 0.07.

**Q.** And the “Social index compared with the placebo group” value [6, 13]?
**A.** Its value is “significantly improved”.

**Q.** What about the “Social index, positive drug versus positive drug solvent group” value ([6]; after 28 days of treatment, cromolyn sodium 6.3 mg/kg intraperitoneal (FIG. 4)) of the same compound?
**A.** The value was “no significant difference”.

**Q.** What about the “Social index (SI)” value [6, 15] of the same compound?
**A.** The value was −0.13 ± 0.12.
